pKd: −log10 of the molar value.
Assays:
[1] = molecular target: cChimera (cNTnC-cTnI [136–163] chimera) (Homo sapiens, UniProt P19429+P63316, C35S/C84S); assay: NMR titration; type: binding
[2] = tested on: cardiac isoform of troponin; conditions: cited from earlier work
[3] = titration monitored by chemical shift changes

SMILES	pKd [1]	Binding to cChimera [1, 3]	further results
Cc1ccc(S(=O)(=O)Nc2ccc(Nc3ccccc3)cc2)cc1 [NSC41053]		NSC41053 Weak binding (very small chemical shift changes that could not be fit to a saturating curve, indicating a KD > 2 mM)	
O=[N+]([O-])c1cccc(Cc2ccc(Cc3cccc([N+](=O)[O-])c3)cc2)c1 [NSC89784]		NSC89784 Weak binding (very small chemical shift changes that could not be fit to a saturating curve, indicating a KD > 2 mM)	
c1ccc(CNCc2ccccc2)cc1 [dibenzylamine]			Binding to cChimera ([1]; addition of a methylene carbon relative to benzylaniline): completely abolished binding
C#Cc1cnc2nc(O)n(C(CC)CC)c2n1 [tirasemtiv]			activity towards the cardiac isoform of troponin [2]: no activity

Continued, in another order:

pKd [1]	SMILES	Binding to cChimera [1, 3]	further results
5.00	Clc1cccc(Nc2ccccc2)c1 [3-chlorodiphenylamine]		
3.10	O=C(O)c1ccccc1Nc1ccccc1 [NSC215211]		
